According to BigSolDB 2.1:

Oc1ccc(/C=C/c2cc(O)cc(O)c2)cc1
solubility (mole fraction)
Settings | in dichloromethane | in ethanol | in methanol | in n-butanol | in n-propanol
283.15 K | 1.23e-06 | 0.0212 | 0.0174 | 0.0103 | 0.0134
288.15 K | 1.57e-06 | 0.0224 | 0.0182 | 0.0112 | 0.0145
293.15 K | 2e-06 | 0.0236 | 0.019 | 0.0121 | 0.0156
298.15 K | 2.53e-06 | 0.0248 | 0.0198 | 0.013 | 0.0168
303.15 K | 3.13e-06 | 0.0261 | 0.0206 | 0.014 | 0.018
